In patent US7879852B2, “Melanocortin receptor agonists” (LG Life Sciences Ltd., priority 2006, dated 2011):

Biological target: T1, human melanocortin receptor 4 (MC4R) (Homo sapiens, UniProt P32245)
T1 construct: expressed in transfected cells; grown with 200 ug/ml Geneticin
Assay: Luciferase assay
Assay type: cell-based
Details: agonistic activity at MC4R (Table 18); patent does not state whether luciferase or cAMP assay
Protocol: Cell lines expressing human melanocortin receptor 4 (MC4R) were dissociated from tissue culture dishes by rinsing with Ca^++, Mg^++ free DPBS, treated with 1× Trypsin/EDTA solution for 1 min at 37° C., and resuspended with DMRM (GIBCO-BRL) supplemented with 10% FBS. The cells were counted and diluted with DMEM supplemented with 10% FBS and 200 ug/ml of Geneticin to […]. 90 ul of cell suspension was plated onto each well of 96-well black and clear bottom culture plates (Costar). After the incubation for 24 h in the atmosphere of 6% CO2 at 37° C., 10 ul of NDP-MSH and test compounds diluted in DMSO were added to each well. The final DMSO concentration was 1%. After 4 h of incubation in the atmosphere of 6% CO2 at 37° C., 50 ul of Bright-Glo (Promega) was added to each well. Luciferase activity was measured by using L-Max luminometer (Molecular Device). The amount of luciferase activity induced by treatment with NDP-MSH was defined as 100% to obtain the relative efficacy of test compounds. The EC0.5 MSH was defined as the concentration of test compounds that results in half maximal activity of NDP-MSH. The EC50 was defined as the concentration of test compound that results in half maximal activity of its own.

T1 sequence (P32245 whole entry): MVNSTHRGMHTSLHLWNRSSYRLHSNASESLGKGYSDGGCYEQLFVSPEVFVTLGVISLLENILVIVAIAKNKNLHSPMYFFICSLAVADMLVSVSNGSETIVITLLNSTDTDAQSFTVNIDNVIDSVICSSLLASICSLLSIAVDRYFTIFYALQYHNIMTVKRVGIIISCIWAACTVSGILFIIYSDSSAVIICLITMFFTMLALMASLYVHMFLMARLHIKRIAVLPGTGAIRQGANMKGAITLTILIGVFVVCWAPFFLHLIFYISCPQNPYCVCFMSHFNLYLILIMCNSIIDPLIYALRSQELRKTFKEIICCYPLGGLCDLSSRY

SMILES	EC50
CCN(C)C(=O)[C@@H]1C[C@H](N(C(=O)[C@@H]2CCCO2)C2CCC(C)(C)CC2)CN1C(=O)[C@@H]1CN(C2CCOCC2)C[C@H]1c1ccc(Cl)cc1 [Example E5-2, (4S)-1-{[(3S,4R)-4-(4-chlorophenyl)-1-(tetrahydro-2H-pyran-4-yl)pyrrolidine-3-yl]carbonyl}-4-{(4,4-dimethylcyclohexyl)[(2S)-tetrahydrofuran-2-ylcarbonyl]amino}-N-ethyl-N-methyl-L-prolineamide]	5 nM
CCNC(=N)N1C[C@@H](C(=O)N2CC[C@H](N(C(=O)C(C)C)[C@H]3CC[C@@H](C)CC3)C2)[C@H](c2ccc(Cl)cc2)C1 [Example E10, N-[(3S)-1-({(3S,4R)-4-(4-chlorophenyl)-1-[(ethylamino)(imino)methyl]pyrrolidine-3-yl}carbonyl)pyrrolidine-3-yl]2-methyl-N-(cis-4-methylcyclohexyl)propaneamide]	4 nM
CN(C)C(=O)[C@@H]1C[C@H](N(C(=O)C(C)(C)C)C2CCC(F)(F)CC2)CN1C(=O)[C@@H]1CN(C(C)(C)C)C[C@H]1c1ccc(Cl)cc1 [Example A5, (4S)-1-{[(3S,4R)-1-tert-butyl-4-(4-chlorophenyl)pyrrolidine-3-yl]carbonyl}-4-[(4,4-difluorocyclohexyl)(2,2-dimethylpropanoyl)amino]-N,N-dimethyl-L-prolineamide]	33 nM
CN(C)C(=O)[C@@H]1C[C@H](N(C(=O)C(C)(C)C(N)=O)C2CCC(C)(C)CC2)CN1C(=O)C1CN(C(C)(C)C)C[C@H]1c1ccc(Cl)cc1 (stereo partly drawn) [Example C12, N-{(3S,5S)-1-{[(3S,4R)-1-tert-butyl-4-(4-chlorophenyl)pyrrolidine-3-yl]carbonyl}-5-[(dimethylamino)carbonyl]pyrrolidine-3-yl}-N-(4,4-dimethylcyclohexyl)-2,2-dimethylmaloneamide]	95 nM
CC1(C)CCC(N(C(=O)C(C)(C)C)[C@H]2CCN(C(=O)[C@@H]3CN(C(N)=O)C[C@H]3c3ccc(Cl)cc3)C2)CC1 [Example E2-3]	45 nM
CCN(C)C(=O)[C@@H]1C[C@H](N(C(=O)C(C)(C)CO)C2CCC(C)(C)CC2)CN1C(=O)[C@@H]1CN(C(C)(C)C)C[C@H]1c1ccc(Cl)cc1 [Example A4, (4S)-1-{[(3S,4R)-1-tert-butyl-4-(4-chlorophenyl)pyrrolidine-3-yl]carbonyl}-4-[(4,4-dimethylcyclohexyl)(3-hydroxy-2,2-dimethylpropanoyl)amino]-N-ethyl-N-methyl-L-prolineamide]	3 nM
CCN(C)C(=O)[C@@H]1C[C@H](N(C(=O)[C@@H]2CCCO2)C2CCC3(CC2)CC3)CN1C(=O)[C@@H]1CN(C(C)(C)C)C[C@H]1c1ccc(Cl)cc1 [Example A90]	30 nM
CC1(C)CCC(N(C(=O)C(C)(C)C)[C@H]2C[C@@H](CO)N(C(=O)[C@@H]3CN(C(C)(C)C)C[C@H]3c3ccc(Cl)cc3)C2)CC1 [Example B4, N-[(3S,5S)-1-{[(3S,4R)-1-tert-butyl-4-(4-chlorophenyl)pyrrolidine-3-yl]carbonyl}-5-(hydroxymethyl)pyrrolidine-3-yl]-N-(4,4-dimethylcyclohexyl)-2,2-dimethylpropaneamide]	16 nM
CCNC(=O)[C@@H]1C[C@H](N(C(=O)[C@@H]2CCCO2)C2CCC(C)(C)CC2)CN1C(=O)[C@@H]1CN(C(C)(C)C)C[C@H]1c1ccc(Cl)cc1 [Example A3, (4S)-1-{[(3S,4R)-1-tert-butyl-4-(4-chlorophenyl)pyrrolidine-3-yl]carbonyl}-4-{(4,4-dimethylcyclohexyl)[(2S)-tetrahydrofuran-2-ylcarbonyl]amino}-N-ethyl-L-prolineamide]	12 nM
